Measurements: patent publication US20240209011A1, “HETEROAROMATIC PHOSPHONIUM SALTS FOR TREATING CANCER” (FLORATEK PHARMA S.A., priority 2021, published 2024)

Columns and labels:
panel of 30 kinases = assay: KINOMEscan primary screen; format: binding; details: % Ctrl between 0 and 10 selected for Kd
Description: (§1) Selected compounds were screened for kinase inhibition using the KINOMEscan™ assay (Eurofins) which is based on a competition binding assay that quantitatively measures the ability of a compound to compete with an immobilized, active-site directed ligand. The assay was performed by combining three components: DNA-tagged kinase; immobilized ligand; and the test compound. The ability of the test compound to compete with the immobilized ligand was measured via quantitative PCR of the DNA tag.
Kinase-tagged T7 phage strains were prepared in an E. coli host derived from the BL21 strain. E. coli were grown to log-phase and infected with T7 phage and incubated with shaking at 32° C. until lysis. The lysates were centrifuged and filtered to remove cell debris. The remaining kinases were produced in HEK-293 cells and subsequently tagged with DNA for qPCR detection. Streptavidin-coated magnetic beads were treated with biotinylated small molecule ligands for 30 minutes at room temperature to generate affinity resins for kinase assays. The liganded beads were blocked with excess biotin and washed with blocking buffer (SeaBlock (Pierce), 1% BSA, 0.05% Tween 20, 1 mM DTT) to remove unbound ligand and to reduce non-specific binding. Binding reactions were assembled by combining kinases, liganded affinity beads, and test compounds in 1× binding buffer (20% SeaBlock, 0.17×PBS, 0.05% Tween 20, 6 mM DTT). Test compounds were prepared as 111× stocks in 100% DMSO. Kds were determined using an 11-point 3-fold compound dilution series with three DMSO control points. All compounds for Kd measurements are distributed by acoustic transfer (non-contact dispensing) in 100% DMSO. The compounds were then diluted directly into the assays such that the final concentration of DMSO was 0.9%. All reactions performed in polypropylene 384-well plate. Each was a final volume of 0.02 ml. The assay plates were incubated at room temperature with shaking for 1 hour and the affinity beads were washed with wash buffer (1×PBS, 0.05% Tween 20). […] The kinase concentration in the eluates was measured by qPCR. […]

ADCK3 = molecular target: T1, ADCK3 (Homo sapiens, UniProt Q8NI60); assay: KINOMEscan competition binding assay, Kd; details: 11-point 3-fold dilution series
T1 construct: purchased Eurofins (KINOMEscan); host or cells: T7 phage in BL21-derived E. coli, or HEK-293
Description: as §1
Kinase-tagged T7 phage strains were prepared in an E. coli host derived from the BL21 strain. E. coli were grown to log-phase and infected with T7 phage and incubated with shaking at 32° C. until lysis. The lysates were centrifuged and filtered to remove cell debris. The remaining kinases were produced in HEK-293 cells and subsequently tagged with DNA for qPCR detection. Streptavidin-coated magnetic beads were treated with biotinylated small molecule ligands for 30 minutes at room temperature to generate affinity resins for kinase assays. The liganded beads were blocked with excess biotin and washed with blocking buffer (SeaBlock (Pierce), 1% BSA, 0.05% Tween 20, 1 mM DTT) to remove unbound ligand and to reduce non-specific binding. Binding reactions were assembled by combining kinases, liganded affinity beads, and test compounds in 1× binding buffer (20% SeaBlock, 0.17×PBS, 0.05% Tween 20, 6 mM DTT). Test compounds were prepared as 111× stocks in 100% DMSO. Kds were determined using an 11-point 3-fold compound dilution series with three DMSO control points. All compounds for Kd measurements are distributed by acoustic transfer (non-contact dispensing) in 100% DMSO. The compounds were then diluted directly into the assays such that the final concentration of DMSO was 0.9%. All reactions performed in polypropylene 384-well plate. Each was a final volume of 0.02 ml. The assay plates were incubated at room temperature with shaking for 1 hour and the affinity beads were washed with wash buffer (1×PBS, 0.05% Tween 20). The beads were then resuspended in elution buffer (1×PBS, 0.05% Tween 20, 0.5 μM nonbiotinylated affinity ligand) and incubated at room temperature with shaking for 30 minutes. The kinase concentration in the eluates was measured by qPCR.
Binding constants (Kds) were calculated with a standard dose-response curve using the Hill equation: Response=Background+[Signal−Background/i+(Kd^Hill Slope/Dose^Hill Slope)]. The Hill Slope was set to −1. Curves were fitted using a non-linear least square fit with the Levenberg-Marquardt algorithm.

skin melanoma PDX = assay: Activity against skin melanoma PDX; format: cell-based; details: skin melanoma PDX growth; text summary of Table 22
Description: (§2) PDX-derived cell cultures were obtained from tumors explanted from mice and isolated by mechanical and enzymatic dissociation. […] Cells were harvested and seeded in 96-wells plates at a density of 1.25 to 5×10^3 cells/well for cytotoxicity assays. Cells were incubated 48 h at 37° C. prior to addition of test molecules and vehicle (DMSO, 0.1%) at desired final concentrations. Cell viability was assessed before drugs' addition (To) and 5 days after test molecules addition by measuring ATP cell content using CellTiter-Glo® Luminescent Cell Viability Assay (Promega) according to the manufacturer's instructions. Luciferase activity was measured on a luminometer (PerkinElmer® EnVision™). Each concentration of compounds was tested in triplicate.
(§3) Viability was calculated as a percentage of ATP value compared to vehicle treated controls.
(§4) For PDX primary cell cultures, the tumour tissue was washed with PBS containing antibiotic-antimycotic and non-tumour tissue and necrotic tumour tissues were separated. The tumour tissue was transferred to a new dish and cut into 1-2 mm^3 fragments, resuspended in RPMI-1640 medium and centrifuged at 1,200 rpm for 6 min at room temperature. The pelleted material was resuspended with 15 mL of Tumour Cell Digestion Solution and incubated at 37° C. for 1 hour with agitation. Following further addition of media, centrifugation and passage through a […] cell strainer, the homogenous cell mixture was layered onto 15 mL of Ficoll-Paque PLUS in a 50 mL conical tube and centrifuged for 15 min at 1,600 rpm. The interface cells were collected, washed with media, separated by centrifugation at 1,200 rpm. The cell pellet was resuspended in serum free media supplemented with growth factors. 10,000 cells/wells were plated in a 96 well plate and incubated at 37° C., 5% CO2, 95% air and 100% relative humidity overnight. The cytotoxicity assay was conducted as above. IC50 values represent absolute IC50.

bile duct PDX = assay: Activity against bile duct PDX; format: cell-based; details: bile duct PDX growth; summary of Table 3
Description: as §2, §3, §4

colon PDX = assay: Activity against colon PDX; format: cell-based; details: for IC50: growth of colon PDX, Table 8; for selectivity among colon PDX: colon PDX CO-04-0722 and CO-04-0700 versus CO-04-0701
Description: as §2, §3, §4

lymphoma PDX = assay: Activity against lymphoma PDX; format: cell-based; details: lymphoma PDX growth; Table 17
Description: as §2, §3, §4

pancreatic PDX = assay: Activity against pancreatic PDX; format: cell-based; details: pancreatic PDX growth; summary of Table 20
Description: as §2, §3, §4

stomach PDX = assay: Activity against stomach PDX; format: cell-based; details: stomach PDX growth; summary of Table 23
Description: as §2, §3, §4

T1 sequence (Q8NI60 163-647): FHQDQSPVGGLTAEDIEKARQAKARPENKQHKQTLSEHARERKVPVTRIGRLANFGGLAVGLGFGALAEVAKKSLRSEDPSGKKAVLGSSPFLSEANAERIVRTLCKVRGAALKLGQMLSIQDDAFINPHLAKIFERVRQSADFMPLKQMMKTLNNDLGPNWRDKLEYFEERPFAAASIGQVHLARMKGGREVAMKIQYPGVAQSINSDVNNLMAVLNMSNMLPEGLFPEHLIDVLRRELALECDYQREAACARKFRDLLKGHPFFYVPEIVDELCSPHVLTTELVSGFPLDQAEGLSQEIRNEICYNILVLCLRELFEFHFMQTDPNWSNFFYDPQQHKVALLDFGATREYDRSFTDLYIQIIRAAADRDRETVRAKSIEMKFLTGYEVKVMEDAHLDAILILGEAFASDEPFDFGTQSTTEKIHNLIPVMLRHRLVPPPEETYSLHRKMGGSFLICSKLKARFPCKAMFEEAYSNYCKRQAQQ

Kd (ADCK3) | SMILES | No. responsive kinases (panel of 30 kinases) | IC50 (skin melanoma PDX) | IC50 (bile duct PDX) | IC50 (colon PDX) | IC50 (lymphoma PDX) | IC50 (pancreatic PDX) | IC50 (stomach PDX) | selectivity among colon PDX (colon PDX)
1.5 µM | O=c1cc(-c2ccc(CCCC[P+](c3ccccc3)(c3ccccc3)c3ccccc3)cc2)oc2c(O)c(O)ccc12 [SND118, 4-[4-(7,8-dihydroxy-4-oxo-chromen-2-yl)phenyl]butyltriphenyl-phosphonium bromide] | 1 | – | – | – | – | – | – | –
0.82 µM | O=c1cc(-c2ccc(CCCC[P+](c3ccccc3)(c3ccccc3)c3ccccc3)cc2)oc2c3c(ccc12)OCO3.[Br-] [SND123, 4-[4-(6-oxo-[1,3]dioxolo[4,5-h]chromen-8-yl)phenyl]butyl-triphenylphosphonium bromide] | 4 | < 10 µM | < 20 µM | < 20 µM | < 5 µM | < 20 µM | < 20 µM | –
– | CCNC(=O)Oc1ccc2c(=O)cc(-c3ccc(CCCC[P+](c4ccccc4)(c4ccccc4)c4ccccc4)cc3)oc2c1OC(=O)NCC.[Br-] [SND124, 4-[4-[7,8-Bis(ethylcarbamoyloxy)-4-oxo-chromen-2-yl]phenyl]-butyltriphenylphosphonium bromide] | – | < 10 µM | < 20 µM | < 20 µM | < 5 µM | < 20 µM | < 20 µM | marked selectivity toward CO-04-0722 and CO-04-0700
– | CCNC(=O)Oc1ccc2c(=O)cc(-c3ccc(CCCC[P+](c4ccccc4)(c4ccccc4)c4ccccc4)cc3)oc2c1O.[Br-] [SND126A, 4-[4-[7-(Ethylcarbamoyloxy)-8-hydroxy-4-oxo-chromen-2-yl]phenyl]butyltriphenylphosphonium bromide] | – | < 10 µM | < 20 µM | < 20 µM | < 5 µM | < 20 µM | < 20 µM | marked selectivity toward CO-04-0722 and CO-04-0700
– | CC(C)NC(=O)Oc1ccc2c(=O)cc(-c3ccc(CCCC[P+](c4ccccc4)(c4ccccc4)c4ccccc4)cc3)oc2c1O [SND127, 4-[4-[7-(Isopropylcarbamoyloxy)-8-hydroxy-4-oxo-chromen-2-yl]phenyl]butyltriphenylphosphonium bromide] | – | – | < 20 µM | – | – | – | – | –
0.62 µM | COc1c(O)ccc2c(=O)cc(-c3ccc(CCCC[P+](c4ccccc4)(c4ccccc4)c4ccccc4)cc3)oc12.[Br-] [SND140, (4-(4-(7-hydroxy-8-methoxy-4-oxo-4H-chromen-2-yl)phenyl)butyl)triphenylphosphonium bromide] | 4 | < 10 µM | < 20 µM | < 20 µM | < 5 µM | < 20 µM | < 20 µM | –
